These results are taken from patent US20080261929A1, “COMBINATION OF PROGESTERONE-RECEPTOR ANTAGONIST TOGETHER WITH AN AROMATASE INHIBITOR FOR USE IN BRCA MEDIATED DISEASES” (priority 2007, published 2008).

The target in data set [1] is T1, progesterone receptor (Homo sapiens, UniProt P06401).
T1 sequence (P06401 1-933): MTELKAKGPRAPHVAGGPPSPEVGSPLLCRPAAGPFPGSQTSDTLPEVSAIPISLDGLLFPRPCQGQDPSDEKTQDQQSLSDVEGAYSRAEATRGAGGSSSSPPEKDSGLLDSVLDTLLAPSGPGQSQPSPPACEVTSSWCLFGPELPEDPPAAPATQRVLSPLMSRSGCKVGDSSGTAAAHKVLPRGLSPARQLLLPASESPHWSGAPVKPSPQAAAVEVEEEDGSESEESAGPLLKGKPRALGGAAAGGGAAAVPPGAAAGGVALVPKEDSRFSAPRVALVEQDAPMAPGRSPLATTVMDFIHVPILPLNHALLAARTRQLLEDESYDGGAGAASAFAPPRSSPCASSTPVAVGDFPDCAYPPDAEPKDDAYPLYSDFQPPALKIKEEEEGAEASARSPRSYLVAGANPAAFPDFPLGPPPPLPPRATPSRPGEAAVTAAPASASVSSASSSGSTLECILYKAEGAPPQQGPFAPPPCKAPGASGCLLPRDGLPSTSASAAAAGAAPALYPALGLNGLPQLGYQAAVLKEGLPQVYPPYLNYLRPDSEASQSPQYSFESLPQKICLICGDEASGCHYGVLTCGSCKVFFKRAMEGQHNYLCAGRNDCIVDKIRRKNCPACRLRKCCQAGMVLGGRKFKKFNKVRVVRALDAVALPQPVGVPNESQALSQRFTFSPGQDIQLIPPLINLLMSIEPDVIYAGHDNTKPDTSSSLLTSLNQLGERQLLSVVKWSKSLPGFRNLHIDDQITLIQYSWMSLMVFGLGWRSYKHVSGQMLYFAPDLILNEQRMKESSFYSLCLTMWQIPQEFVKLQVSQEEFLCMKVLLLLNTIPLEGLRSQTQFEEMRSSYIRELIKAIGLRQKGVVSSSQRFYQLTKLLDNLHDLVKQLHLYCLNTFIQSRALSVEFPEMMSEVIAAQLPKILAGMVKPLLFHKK
Nature of the data set: Progesterone receptor protein expression/stability after siRNA knock down of BRCA1 (Example 1). In kind it is cell-based. On the procedure: MCF-7 and T47D mammary cells were stabely transfected with the aromatse gene. These cells grow with androstenedione stimulus. These cells were treated with siRNA knocking down the BRCA1 and BRCA2 gene.
In a second step cells were stimulated either with progesterone and/or with androstenedione. […] The effects on progesterone receptor protein expression were further investigated.

The target in data set [2] is T1, progesterone receptor. To be noted: cited from earlier work.
For data set [3], the target named is T1, progesterone receptor. Nature of the data set: Progesterone receptor protein expression/stability after knock down of BRCA1 (Example 3). From the text:
MCF-7 and T47D mammary cells stabely transfected with the aromatse gene. These cells grow with androstenedione stimulus in vivo. These cells were stabely transfected with shRNA knocking down the BRCA1 and BRCA2 gene. Cell growth in vivo in comparison to untransfected and mock transfected cells was compared. In a second step cells were implanted in immunodeficient nude mice and stimulated either with progesterone and/or with androstenedione. […] The effects on progesterone receptor protein expression were further investigated.

The subject of another data set is tumor cells. The data set can be described thus: Apoptosis of tumor cells.
For the next data set, the system named is mammary tumors. To be noted: mice with rodent BRCA1- or BRCA2 inactivated in mammary glands; Poole et al., Science 2006; cited from earlier work.
The conditions of data set [4]: administered orally; cited from earlier work.

Read-outs that look alike come from different tables or passages of the source.

`CC(=O)c1ccc([C@H]2C[C@@]3(C)[C@@H](CC[C@@]3(O)C(F)(F)C(F)(F)F)[C@@H]3CCC4=CC(=O)CCC4=C32)cc1` [11β-(4-acetylphenyl)-17β-hydroxy-17α-(1,1,2,2,2-pentafluoroethyl)-estra-4,9-dien-3-one]: the “Effect on increased stability of progesterone receptor after BRCA1 knock down” value on progesterone receptor [1] and at progesterone receptor [3] was “could be antagonized” throughout. Moreover, the Antiprogestagenic activity entry at progesterone receptor [2] (Fuhrmann et al., J. Med. Chem. 2000) is recorded as “high antiprogestagenic activity”. Also, the entries for the “Other endocrinological (side) effects, e.g. androgen, estrogen or antiglucocorticoid activity” value at progesterone receptor [2] and at progesterone receptor [2] (listed as ZK230211) were “only very weak or no endocrine side effects” and “little or no other endocrinological effects”, respectively. For the same molecule, the “Apoptosis of tumor cells” value with tumor cells is recorded as “increased apoptosis of tumor cells”.
In the case of `CC#C[C@]1(O)CC[C@H]2[C@@H]3CCC4=CC(=O)CCC4=C3[C@@H](c3ccc(N(C)C)cc3)C[C@@]21C` [mifepristone], the “Development of mammary tumors” value in the data set on mammary tumors is recorded as “blocks the development of mammary tumors”. Further, the Bioavailability result in data set [4] is reported as “poor bioavailability”.
